Source: patent US9862679B2, “Potent and selective inhibitors of monoamine transporters; method of making; and use thereof” (priority 2013, dated 2018)
Where two headings read alike, the source gives them in different places.

Assays:
[1] = target: serotonin transporter (SERT) (Rattus norvegicus (Rat), UniProt P31652); settings: for Ki: rat brain membranes
Protocol: Brains from male Sprague-Dawley rats weighing 200-225 g (Taconic Labs, Germantown, N.Y.) were removed, midbrain dissected and rapidly frozen. […] Nonspecific binding was determined using 10 mM fluoxetine. […] The filters were washed twice with 3 mL cold buffer and transferred to scintillation vials. Beckman Ready Value (3.0 mL) was added and the vials were counted the next day using a Beckman 6000 liquid scintillation counter (Beckman Coulter Instruments, Fullerton, Calif.). […] Data were analyzed with GraphPad Prism software (San Diego, Calif.).

Sigma 2 = Sigma 2 (Homo sapiens (Human), UniProt Q5BJF2); assay: Sigma 2 binding affinity (Table 5)
Sigma 1 = Sigma 1 (Homo sapiens (Human), UniProt Q99720); assay: Sigma 1 binding affinity (Table 5)
Sigma 1, sequence (Q99720 whole entry): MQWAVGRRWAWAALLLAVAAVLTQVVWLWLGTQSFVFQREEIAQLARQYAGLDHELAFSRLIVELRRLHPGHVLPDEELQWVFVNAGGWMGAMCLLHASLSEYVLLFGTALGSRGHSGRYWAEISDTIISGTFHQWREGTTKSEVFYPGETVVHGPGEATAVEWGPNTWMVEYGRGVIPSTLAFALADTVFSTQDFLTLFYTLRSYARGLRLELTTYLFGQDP

[2] = target: dopamine transporter (DAT) (Rattus norvegicus (Rat), UniProt P23977); assay: Dopamine Transporter Binding Assay ([3H]WIN 35428, rat striatal membranes)
dopamine transporter (DAT), sequence (P23977 whole entry): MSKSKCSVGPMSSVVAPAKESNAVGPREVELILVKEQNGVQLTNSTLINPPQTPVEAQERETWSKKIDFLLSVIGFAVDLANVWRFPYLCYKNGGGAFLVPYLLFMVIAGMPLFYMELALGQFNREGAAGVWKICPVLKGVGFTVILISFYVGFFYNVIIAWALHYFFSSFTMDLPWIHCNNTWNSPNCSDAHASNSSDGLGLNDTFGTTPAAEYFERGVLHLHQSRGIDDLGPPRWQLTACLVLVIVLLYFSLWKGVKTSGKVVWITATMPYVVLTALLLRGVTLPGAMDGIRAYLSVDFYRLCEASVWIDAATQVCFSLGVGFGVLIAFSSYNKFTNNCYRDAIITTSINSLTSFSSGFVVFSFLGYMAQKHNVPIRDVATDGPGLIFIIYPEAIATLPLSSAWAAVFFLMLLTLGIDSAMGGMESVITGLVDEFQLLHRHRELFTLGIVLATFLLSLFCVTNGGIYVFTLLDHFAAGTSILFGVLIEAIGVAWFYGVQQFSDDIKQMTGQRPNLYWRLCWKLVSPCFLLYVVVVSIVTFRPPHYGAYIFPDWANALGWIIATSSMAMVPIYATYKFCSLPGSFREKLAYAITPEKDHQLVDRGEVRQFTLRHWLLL

[3] = target: norepinephrine transporter (NET) (Rattus norvegicus, UniProt Q63380); settings: rat brain membranes; for Ki: read-out: Ki (nM) ± S.E.M. NET
norepinephrine transporter (NET), sequence (Q63380 1-617): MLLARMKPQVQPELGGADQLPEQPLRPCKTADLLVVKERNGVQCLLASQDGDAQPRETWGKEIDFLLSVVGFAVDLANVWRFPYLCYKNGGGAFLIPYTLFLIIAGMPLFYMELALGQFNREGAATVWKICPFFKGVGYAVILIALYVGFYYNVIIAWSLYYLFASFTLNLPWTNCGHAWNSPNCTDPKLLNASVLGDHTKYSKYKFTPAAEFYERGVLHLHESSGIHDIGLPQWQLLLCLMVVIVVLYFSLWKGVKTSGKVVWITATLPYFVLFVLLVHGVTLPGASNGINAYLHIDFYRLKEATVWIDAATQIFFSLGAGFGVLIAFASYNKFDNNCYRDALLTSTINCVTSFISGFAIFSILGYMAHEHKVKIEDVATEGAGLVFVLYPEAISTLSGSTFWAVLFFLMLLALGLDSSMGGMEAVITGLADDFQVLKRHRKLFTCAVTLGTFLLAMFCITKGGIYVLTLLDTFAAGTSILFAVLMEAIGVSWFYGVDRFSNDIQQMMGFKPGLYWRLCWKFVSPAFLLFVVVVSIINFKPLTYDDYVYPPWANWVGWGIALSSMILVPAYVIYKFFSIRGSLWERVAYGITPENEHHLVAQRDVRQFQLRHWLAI
Protocol: Binding affinities of all compounds were evaluated at the DAT, SERT, and NET in rat brain membranes using previously described methods:
Norepinephrine Transporter Binding Assay. Brains from male Sprague-Dawley rats weighing 200-225 g (Taconic Labs, Germantown, N.Y.) were removed, frontal cortex dissected and rapidly frozen. Membranes were prepared by homogenizing tissues in 20 volumes (w/v) of 50 mM Tris containing 120 mM NaCl and 5 mM KCl, (pH 7.4 at 25° C.), using a Brinkman Polytron and centrifuged at 50,000×g for 10 min at 4° C. The resulting pellet was resuspended in buffer, recentrifuged and resuspended in buffer to a concentration of 80 mg/mL. Ligand binding experiments were conducted in assay tubes containing 0.5 mL buffer for 60 min at 0-4° C. […] Nonspecific binding was determined using 1 mM desipramine. Incubations were terminated by rapid filtration through Whatman GF/B filters, presoaked in 0.05% polyethylenimine, using a Brandel R48 filtering manifold (Brandel Instruments Gaithersburg, Md.). The filters were washed twice with 3 mL cold buffer and transferred to scintillation vials. Beckman Ready Value (3.0 mL) was added and the vials were counted using a Beckman 6000 liquid scintillation counter (Beckman Coulter Instruments, Fullerton, Calif.). […] All compounds were tested as racemic mixtures.

[4] = read-out: SERT Ki ± SEM, Table 5 piperazinyl derivatives
[5] = Table 5 piperazinyl derivatives, read-out: Sigma 2 Ki ± SEM
[6] = Table 5 piperazinyl derivatives, read-out: Sigma 1 Ki ± SEM
[7] = rat brain membranes, Table 5 piperazinyl derivatives, read-out: DAT Ki ± SEM
[8] = Table 1 thioacetamides and sulfinylacetamides
[9] = read-out: Ki (nM) ± S.E.M. SERT, Table 1 thioacetamides and sulfinylacetamides
[10] = rat brain membranes, Table 1 thioacetamides and sulfinylacetamides, read-out: Ki (nM) ± S.E.M. DAT
[11] = read-out: Ki (nM) ± S.E.M. SERT, Table 2 thioethanamines and sulfinylethanamines
[12] = Table 2 thioethanamines and sulfinylethanamines
[13] = rat brain membranes, Table 2 thioethanamines and sulfinylethanamines, read-out: Ki (nM) ± S.E.M. DAT

Sigma 2, sequence (Q5BJF2 whole entry): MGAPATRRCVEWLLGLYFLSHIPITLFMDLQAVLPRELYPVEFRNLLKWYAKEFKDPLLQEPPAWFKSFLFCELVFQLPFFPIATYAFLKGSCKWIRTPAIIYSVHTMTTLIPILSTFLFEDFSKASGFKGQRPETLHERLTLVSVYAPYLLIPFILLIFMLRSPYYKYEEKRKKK
serotonin transporter (SERT), sequence (P31652 whole entry): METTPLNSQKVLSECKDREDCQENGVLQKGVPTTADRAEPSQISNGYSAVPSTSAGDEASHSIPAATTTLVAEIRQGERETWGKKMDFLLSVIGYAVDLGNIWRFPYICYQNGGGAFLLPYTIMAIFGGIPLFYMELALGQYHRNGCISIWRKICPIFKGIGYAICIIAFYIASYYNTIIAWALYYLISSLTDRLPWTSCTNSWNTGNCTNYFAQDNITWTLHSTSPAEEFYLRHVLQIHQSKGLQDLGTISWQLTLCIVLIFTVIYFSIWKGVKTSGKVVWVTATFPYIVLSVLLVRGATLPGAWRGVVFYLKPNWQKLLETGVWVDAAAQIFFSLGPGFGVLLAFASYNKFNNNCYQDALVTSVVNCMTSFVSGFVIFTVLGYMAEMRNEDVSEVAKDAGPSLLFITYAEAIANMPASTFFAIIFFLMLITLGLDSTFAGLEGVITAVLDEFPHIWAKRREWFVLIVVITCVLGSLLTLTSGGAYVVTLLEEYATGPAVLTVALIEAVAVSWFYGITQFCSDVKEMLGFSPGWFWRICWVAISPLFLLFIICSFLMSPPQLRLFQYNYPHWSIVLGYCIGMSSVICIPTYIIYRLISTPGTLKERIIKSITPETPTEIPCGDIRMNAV

CC(O)CN1CCN(CCSC(c2ccc(F)cc2)c2ccc(F)cc2)CC1 (racemic) [Compound 9d, 1-(4-(2-((Bis(4-fluorophenyl)methyl)thio)ethyl)piperazin-1-yl)propan-2-ol]
Ki [1, 4]: 1770 ± 234 nM | Ki (Sigma 2; [5]): 0.0847 ± 0.0119 µM | Ki (Sigma 1; [6]): 0.00403 ± 0.00022 µM

[O-][S+](CCN1CCN(CC(O)Cc2ccccc2)CC1)C(c1ccc(F)cc1)c1ccc(F)cc1 (racemic) [Compound 10j, 1-(4-(2-((Bis(4-fluorophenyl)methyl)sulfinyl)ethyl)piperazin-1-yl)-3-phenylpropan-2-ol]
Ki [1, 4]: 4610 ± 562 nM | Ki [2, 7]: 2.53 ± 0.25 nM | Ki (Sigma 2; [5]): 0.176 ± 0.0263 µM | Ki (Sigma 1): 0.336 ± 0.0422 µM

NC(=O)CSC(c1ccccc1)c1ccccc1 [Compound 2a, 2-(Benzhydrylthio)acetamide]
Ki [3, 8]: > 100000 nM

NC(=O)CSC(c1cccc(Cl)c1)c1cccc(Cl)c1 [Compound 2e, 2-((Bis(3-chlorophenyl)methyl)thio)acetamide]
Ki [1, 9]: 739000 nM | Ki [2, 10]: 277 ± 18.3 nM | Ki [3, 8]: 34000 nM

CNC(=O)CSC(c1ccccc1)c1ccccc1 [Compound 2g, 2-(Benzhydrylthio)-N-methylacetamide]
Ki [1, 9]: > 300000 nM | Ki [2, 10]: 19400 nM | Ki [3, 8]: 27300 nM

CNC(=O)CSC(c1ccc(Cl)cc1)c1ccc(Cl)cc1 [Compound 2h, 2-((Bis(4-chlorophenyl)methyl)thio)-N-methylacetamide]
Ki [1, 9]: > 30000 nM

CNC(=O)CSC(c1ccc(Br)cc1)c1ccc(Br)cc1 [Compound 2i, 2-((Bis(4-bromophenyl)methyl)thio)-N-methylacetamide]
increase in SERT affinity, halogen-substituted v. unsubstituted analogue ([1]; 2i v. 2g (Table 1), 4c v. 4a (Table 2)): > 50 fold | Ki [1, 9]: 5750 nM | improvement in DAT affinity, halogen-substituted v. unsubstituted analogue [2]: 6 fold | Ki [2, 10]: 3030 nM | Ki [3, 8]: 11200 nM

C=CCNC(=O)CSC(c1ccccc1)c1ccccc1 [Compound 2j, N-Allyl-2-(benzhydrylthio)acetamide]
Ki [1, 9]: > 300000 nM | Ki [2, 10]: 9190 nM | Ki [3, 8]: > 230000 nM

CCCNC(=O)CSC(c1ccccc1)c1ccccc1 [Compound 2k, 2-(Benzhydrylthio)-N-propylacetamide]
Ki [1, 9]: > 550000 nM | Ki [2, 10]: 20700 nM | Ki [3, 8]: 55900 nM

CCCNC(=O)CSC(c1ccc(F)cc1)c1ccc(F)cc1 [Compound 2l, 2-((Bis(4-fluorophenyl)methyl)thio)-N-propylacetamide]
Ki [1, 9]: 45100 nM | Ki [2, 10]: 12000 nM | Ki [3, 8]: 61700 nM

CCCNC(=O)CSC(c1ccc(Cl)cc1)c1ccc(Cl)cc1 [Compound 2m, 2-((Bis(4-chlorophenyl)methyl)thio)-N-propylacetamide]
Ki [1, 9]: 10300 nM

CCCNC(=O)CSC(c1ccc(Br)cc1)c1ccc(Br)cc1 [Compound 2n, 2-((Bis(4-bromophenyl)methyl)thio)-N-propylacetamide]
Ki [3, 8]: 10600 nM

CCCCNC(=O)CSC(c1ccccc1)c1ccccc1 [Compound 2r, 2-(Benzhydrylthio)-N-butylacetamide]
Ki [1, 9]: > 100000 nM | Ki [2, 10]: 24000 nM | Ki [3, 8]: > 100000 nM

CCCCNC(=O)CSC(c1ccc(F)cc1)c1ccc(F)cc1 [Compound 2s, 2-((Bis(4-fluorophenyl)methyl)thio)-N-butylacetamide]
Ki [2, 10]: 6470 nM

CCCCNC(=O)CSC(c1ccc(Br)cc1)c1ccc(Br)cc1 [Compound 2t, 2-((Bis(4-bromophenyl)methyl)thio)-N-butylacetamide]
Ki [1, 9]: 7090 nM | Ki [2, 10]: 729 ± 69.3 nM

O=C(CSC(c1ccccc1)c1ccccc1)NCCCc1ccccc1 [Compound 2u, 2-(Benzhydrylthio)-N-(3-phenylpropyl)acetamide]
Ki ([2]; read-out: Ki (nM) ± S.E.M. DAT): 2020 nM

O=C(CSC(c1ccc(F)cc1)c1ccc(F)cc1)NCCCc1ccccc1 [Compound 2v, 2-((Bis(4-fluorophenyl)methyl)thio)-N-(3-phenylpropyl)acetamide]
Ki [1, 9]: 3640 nM | Ki [3, 8]: > 100000 nM

O=C(CSC(c1ccc(Br)cc1)c1ccc(Br)cc1)NCCCc1ccccc1 [Compound 2x, 2-((Bis(4-bromophenyl)methyl)thio)-N-(3-phenylpropyl)acetamide]
Ki [1, 9]: 60800 nM | Ki [2, 10]: 244 ± 36.4 nM | Ki [3, 8]: 36300 nM

O=C(CSC(c1ccccc1)c1ccccc1)NCCCCc1ccccc1 [Compound 2y, 2-(Benzhydrylthio)-N-(4-phenylbutyl)acetamide]
Ki ([2]; read-out: Ki (nM) ± S.E.M. DAT): 1160 nM

O=C(CSC(c1ccc(Br)cc1)c1ccc(Br)cc1)NCCCCc1ccccc1 [Compound 2z, 2-((Bis(4-bromophenyl)methyl)thio)-N-(4-phenylbutyl)acetamide]
Ki [1, 9]: > 100000 nM | Ki (nM) ± S.E.M. NET [3, 8]: no displacement | Ki [3, 8]: > 100000 nM

NC(=O)C[S+]([O-])C(c1ccc(C(F)(F)F)cc1)c1ccc(C(F)(F)F)cc1 (centres unmarked) [Compound 3b, 2-((Bis(4-(trifluoromethyl)phenyl)methyl)sulfinyl)acetamide]
Ki [2, 10]: 35400 nM

CNC(=O)C[S+]([O-])C(c1ccccc1)c1ccccc1 (centres unmarked) [Compound 3f, 2-(Benzhydrylsulfinyl)-N-methylacetamide]
Ki [1, 9]: > 100000 nM | Ki [2, 10]: 13400 nM | Ki [3, 8]: > 100000 nM

O=C(C[S+]([O-])C(c1ccc(Br)cc1)c1ccc(Br)cc1)NCCCc1ccccc1 (centres unmarked) [Compound 3g, 2-(Bis(4-bromophenyl)methylsulfinyl)-N-(3-phenylpropyl)acetamide]
Ki [1, 9]: 906 ± 113 nM | Ki [2, 10]: 1290 nM | Ki [3, 8]: > 100000 nM

NCCSC(c1ccccc1)c1ccccc1 [Compound 4a, 2-(benzhydrylthio)ethan-1-amine]
Ki [1, 11]: 226 ± 30.6 nM | improved affinity at the DAT compared to (±)-modafinil [2]: about 20 fold | Ki ([2]; read-out: Ki (nM) ± S.E.M. DAT): 143 nM | Ki [3, 12]: 982 ± 43.3 nM

c1ccc(C(SCCNCC2CC2)c2ccccc2)cc1 [Compound 4d, 2-(benzhydrylthio)-N-(cyclopropylmethyl)ethan-1-amine]
Ki [1, 11]: 10000 nM | Ki ([2]; read-out: Ki (nM) ± S.E.M. DAT): 437 ± 30.1 nM

CCCCNCCSC(c1ccccc1)c1ccccc1 [Compound 4e, N-(2-(benzhydrylthio)ethyl)butan-1-amine]
Ki [1, 11]: 5820 nM | Ki [2, 13]: 315 ± 39.9 nM | Ki [3, 12]: 11500 nM

c1ccc(CCCNCCSC(c2ccccc2)c2ccccc2)cc1 [Compound 4f, N-(2-(benzhydrylthio)ethyl)-3-phenylpropan-1-amine]
Ki [1, 11]: 853 ± 127 nM | Ki [2, 13]: 297 ± 28.2 nM | Ki [3, 12]: 3910 nM

Brc1ccc(C(SCCNCCCc2ccccc2)c2ccc(Br)cc2)cc1 [Compound 4i, N-(2-((bis(4-bromophenyl)methyl)thio)ethyl)-3-phenylpropan-1-amine]
Ki [1, 11]: 163 ± 7.49 nM | Ki ([2]; read-out: Ki (nM) ± S.E.M. DAT): 618 ± 53 nM

NCC[S+]([O-])C(c1ccccc1)c1ccccc1 (centres unmarked) [Compound 5a, 2-(Benzhydrylsulfinyl)ethan-1-amine]
Ki [1, 11]: 3420 nM

CCCCNCC[S+]([O-])C(c1ccccc1)c1ccccc1 (centres unmarked) [Compound 5b, N-(2-(benzhydrylsulfinyl)ethyl)butan-1-amine]
Ki [1, 11]: 64600 nM | Ki [2, 13]: 1580 nM | Ki [3, 12]: > 140000 nM

[O-][S+](CCNCCCc1ccccc1)C(c1ccc(F)cc1)c1ccc(F)cc1 (centres unmarked) [Compound 5c, N-(2-((bis(4-fluorophenyl)methyl)sulfinyl)ethyl)-3-phenylpropan-1-amine]
Ki [1, 11]: 1310 nM | Ki [2, 13]: 200 ± 38.7 nM | Ki [3, 12]: 3280 nM

[O-][S+](CCNCCCc1ccccc1)C(c1ccc(Cl)cc1)c1ccc(Cl)cc1 (centres unmarked) [Compound 5d, N-(2-((bis(4-chlorophenyl)methyl)sulfinyl)ethyl)-3-phenylpropan-1-amine]
Ki [1, 11]: 542 ± 42.6 nM | Ki [2, 13]: 660 ± 76.9 nM | Ki [3, 12]: 5800 nM

[O-][S+](CCNCCCc1ccccc1)C(c1ccc(Br)cc1)c1ccc(Br)cc1 (centres unmarked) [Compound 5e, N-(2-((bis(4-bromophenyl)methyl)sulfinyl)ethyl)-3-phenylpropan-1-amine]
Ki [1, 11]: 564 ± 65.3 nM | Ki [2, 13]: 1290 nM | Ki [3, 12]: 7580 nM

O=C(CSC(c1ccccc1)c1ccccc1)N1CCN(CCCc2ccccc2)CC1 [Compound 11a, 2-(Benzhydrylthio)-1-(4-(3-phenylpropyl)piperazin-1-yl)ethan-1-one]
Ki [2, 7]: 47.2 ± 5.56 nM | Ki (Sigma 2): 0.773 µM | Ki (Sigma 1): 1.12 ± 0.0203 µM

O=C(C[S+]([O-])C(c1ccccc1)c1ccccc1)N1CCN(CCCc2ccccc2)CC1 (centres unmarked) [Compound 12a, 2-(Benzhydrylsulfinyl)-1-(4-(3-phenylpropyl)piperazin-1-yl)ethan-1-one]
Ki [1, 4]: 15200 ± 1100 nM | Ki [2, 7]: 33 ± 2.83 nM | Ki (Sigma 2; [5]): 0.469 ± 0.0664 µM | Ki (Sigma 1; [6]): 1.43 ± 0.0211 µM

NC(=O)CSC(c1ccc(Cl)cc1)c1ccc(Cl)cc1 [Compound 100, reference compound]
Ki [1, 9]: 12700 nM | Ki ([2]; read-out: Ki (nM) ± S.E.M. DAT): 2230 nM

[O-][S+](CCNCCCc1ccccc1)C(c1ccccc1)c1ccccc1 (centres unmarked) [Compound 200, reference compound]
Ki [1, 11]: 1000 nM | Ki ([2]; read-out: Ki (nM) ± S.E.M. DAT): 194 ± 16.8 nM
